Reference: patent US20260103461A1, “ESTROGEN RECEPTOR MODULATORS AND USES THEREOF” (Olema Pharmaceuticals, Inc., priority 2022, published 2026)

Molecular target: T1, estrogen receptor (Homo sapiens, UniProt P03372)
T1 construct: endogenous in cells; host or cells: ECC-1 cells
T1 sequence (P03372 1-595): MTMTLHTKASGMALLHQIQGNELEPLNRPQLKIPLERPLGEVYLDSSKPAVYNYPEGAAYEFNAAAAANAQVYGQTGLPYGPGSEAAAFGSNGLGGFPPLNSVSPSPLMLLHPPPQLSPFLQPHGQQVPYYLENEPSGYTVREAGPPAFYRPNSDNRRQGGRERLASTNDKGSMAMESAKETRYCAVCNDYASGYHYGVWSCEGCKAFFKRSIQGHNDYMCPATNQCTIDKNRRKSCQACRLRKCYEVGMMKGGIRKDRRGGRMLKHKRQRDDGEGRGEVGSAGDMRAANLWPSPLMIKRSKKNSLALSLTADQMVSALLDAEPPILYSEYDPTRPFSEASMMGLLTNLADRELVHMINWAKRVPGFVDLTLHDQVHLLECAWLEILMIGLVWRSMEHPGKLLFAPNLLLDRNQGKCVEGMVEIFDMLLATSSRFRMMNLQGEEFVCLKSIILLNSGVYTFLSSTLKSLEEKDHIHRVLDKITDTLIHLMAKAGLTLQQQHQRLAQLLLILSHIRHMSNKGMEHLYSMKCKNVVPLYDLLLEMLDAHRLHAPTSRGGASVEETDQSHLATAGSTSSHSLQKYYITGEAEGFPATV
Experiment: AP (alkaline phosphatase) assay in ECC-1 cells, agonist mode and antagonist mode
Assay type: cell-based
Details: 3 days, absence of E2 (agonist mode) or 500 pM E2 (antagonist mode), AP activity normalized to 500 pM E2 alone
Experimental: ECC-1 cells were trypsinized and resuspended in hormone-depleted media and plated at a density of 15 k cells per well into a 96-well plate for at least 4 hours. Cells were treated with test compounds in the absence of E2 (for agonist mode) or in the presence of 500 pM E2 (for antagonist mode) for 3 days and plates were subsequently frozen at −80° C. Thawed plates were incubated with a chromogenic substrate of AP, p-nitrophenyl phosphate (Thermo Fisher Scientific), for 40 minutes at 42° C., and absorbances were read at 405 nm. AP activity was normalized to the activity of 500 pM E2 alone.
The compound numbers correspond to the compound numbers of Table 1 and 2. Compounds having an activity designated as “+” provided estrogen receptor agonism having (i) at least 80% increase in the E2-normalized signal in the AP assay (agonist mode) and (ii) no more than 80% reduction in the E2-normalized signal in the AP assay (antagonist mode). Compounds having an activity designated as “++” provided estrogen receptor antagonism having (i) between 10% and 80% increase in the E2-normalized signal in the AP assay (agonist mode) and (ii) between 10% and 80% reduction in the E2-normalized signal in the AP assay (antagonist mode).

SMILES | Activity (estrogen receptor modulation, agonism and antagonism)
C[C@@H]1Cc2c([nH]c3ccccc23)[C@@H](c2ccc(O[C@@H]3CCN(CCF)C3)s2)N1CC(C)(C)F [Example I-17, (1S,3R)-1-[5-[(3R)-1-(2-fluoroethyl)pyrrolidin-3-yl]oxy-2-thienyl]-2-(2-fluoro-2-methyl-propyl)-3-methyl-1,3,4,9-tetrahydropyrido[3,4-b]indole] | + (estrogen receptor agonism having (i) at least 80% increase in the E2-normalized signal in the AP assay (agonist mode) and (ii) no more than 80% reduction in the E2-normalized signal in the AP assay (antagonist mode))
C[C@@H]1Cc2c([nH]c3ccccc23)[C@@H](c2cnc(O[C@@H]3CCN(CCCF)C3)s2)N1CC(C)(C)F [Example I-23, 5-[(1S,3R)-2-(2-fluoro-2-methyl-propyl)-3-methyl-1,3,4,9-tetrahydropyrido[3,4-b]indol-1-yl]-2-[(3R)-1-(3-fluoropropyl)pyrrolidin-3-yl]oxy-thiazole] | +++ (estrogen receptor antagonism (i) with pIC50 greater than 7.5 and at least a 10% reduction in the E2-normalized signal in the AP assay (antagonist mode); and no more than 10% increase in E2-normalized signal in the AP assay (agonist mode))
C[C@@H]1Cc2c([nH]c3ccccc23)[C@@H](c2cnc(O[C@H]3CCCN(CCCF)C3)s2)N1CC(F)(F)CO [Example I-38] | + (estrogen receptor agonism having (i) at least 80% increase in the E2-normalized signal in the AP assay (agonist mode) and (ii) no more than 80% reduction in the E2-normalized signal in the AP assay (antagonist mode))
C[C@@H]1Cc2c([nH]c3ccccc23)[C@@H](c2cnc(O[C@@H]3CCN(CCCF)[C@H]3C)s2)N1CC(F)(F)CO [Example I-34, 2,2-difluoro-3-[(1S,3R)-1-[2-[(2S,3R)-1-(3-fluoropropyl)-2-methyl-pyrrolidin-3-yl]oxythiazol-5-yl]-3-methyl-1,3,4,9-tetrahydropyrido[3,4-b]indol-2-yl]propan-1-ol] | + (estrogen receptor agonism having (i) at least 80% increase in the E2-normalized signal in the AP assay (agonist mode) and (ii) no more than 80% reduction in the E2-normalized signal in the AP assay (antagonist mode))
C[C@@H]1Cc2c([nH]c3ccccc23)[C@@H](c2ccc(O[C@@H]3CCN(CCCF)C3)s2)N1CC(C)(C)F [Example I-5, (3R)-3-({5-[(1S,3R)-2-(2-fluoro-2-methylpropyl)-3-methyl-1H,2H,3H,4H,9H-pyrido[3,4-b]indol-1-yl]thiophen-2-yl}oxy)-1-(3-fluoropropyl)pyrrolidine] | + (estrogen receptor agonism having (i) at least 80% increase in the E2-normalized signal in the AP assay (agonist mode) and (ii) no more than 80% reduction in the E2-normalized signal in the AP assay (antagonist mode))
C[C@@H]1Cc2c([nH]c3ccccc23)[C@@H](c2ccc(O[C@@H]3CCN(CCCF)C3)s2)N1CC(F)(F)CO [Example I-13, 2,2-difluoro-3-[(1S,3R)-1-[5-[(3R)-1-(3-fluoropropyl)pyrrolidin-3-yl]oxy-2-thienyl]-3-methyl-1,3,4,9-tetrahydropyrido[3,4-b]indol-2-yl]propan-1-ol] | +++ (estrogen receptor antagonism (i) with pIC50 greater than 7.5 and at least a 10% reduction in the E2-normalized signal in the AP assay (antagonist mode); and no more than 10% increase in E2-normalized signal in the AP assay (agonist mode))
C[C@@H]1Cc2c([nH]c3ccccc23)[C@@H](c2ccc(OC3CN(CCCF)C3)s2)N1CC(C)(C)F [Example I-2, 3-({5-[(1S,3R)-2-(2-fluoro-2-methylpropyl)-3-methyl-1H,2H,3H,4H,9H-pyrido[3,4-b]indol-1-yl]thiophen-2-yl}oxy)-1-(3-fluoropropyl)azetidine] | ++ (estrogen receptor antagonism having (i) between 10% and 80% increase in the E2-normalized signal in the AP assay (agonist mode) and (ii) between 10% and 80% reduction in the E2-normalized signal in the AP assay (antagonist mode))
C[C@@H]1Cc2c([nH]c3ccccc23)[C@@H](c2cnc(O[C@@H]3CCCN(CCCF)C3)s2)N1CC(F)(F)CO [Example I-37, 2,2-difluoro-3-[(1S,3R)-1-[2-[[(3R)-1-(3-fluoropropyl)-3-piperidyl]oxy]thiazol-5-yl]-3-methyl-1,3,4,9-tetrahydropyrido[3,4-b]indol-2-yl]propan-1-ol] | +++ (estrogen receptor antagonism (i) with pIC50 greater than 7.5 and at least a 10% reduction in the E2-normalized signal in the AP assay (antagonist mode); and no more than 10% increase in E2-normalized signal in the AP assay (agonist mode))
C[C@@H]1Cc2c([nH]c3ccccc23)[C@@H](c2cnc(O[C@H]3CN(CCCF)C[C@@H]3F)s2)N1CC(F)(F)CO [Example I-32, 2,2-difluoro-3-[(1S,3R)-1-[2-[(3S,4S)-4-fluoro-1-(3-fluoropropyl)pyrrolidin-3-yl]oxythiazol-5-yl]-3-methyl-1,3,4,9-tetrahydropyrido[3,4-b]indol-2-yl]propan-1-ol] | + (estrogen receptor agonism having (i) at least 80% increase in the E2-normalized signal in the AP assay (agonist mode) and (ii) no more than 80% reduction in the E2-normalized signal in the AP assay (antagonist mode))
CCCN1CC(Oc2ccc([C@@H]3c4[nH]c5ccccc5c4C[C@@H](C)N3CC(C)(C)F)s2)C1 [Example I-1, 3-({5-[(1S,3R)-2-(2-fluoro-2-methylpropyl)-3-methyl-1H,2H,3H,4H,9H-pyrido[3,4-b]indol-1-yl]thiophen-2-yl}oxy)-1-propylazetidine] | ++ (estrogen receptor antagonism having (i) between 10% and 80% increase in the E2-normalized signal in the AP assay (agonist mode) and (ii) between 10% and 80% reduction in the E2-normalized signal in the AP assay (antagonist mode))
